The target of one assay is T1, TAK1-TAB1 fusion protein (Homo sapiens, UniProt O43318).
T1 construct: purchased Carna
T1 sequence (O43318 with tags, fused parts or gaps limits assumed): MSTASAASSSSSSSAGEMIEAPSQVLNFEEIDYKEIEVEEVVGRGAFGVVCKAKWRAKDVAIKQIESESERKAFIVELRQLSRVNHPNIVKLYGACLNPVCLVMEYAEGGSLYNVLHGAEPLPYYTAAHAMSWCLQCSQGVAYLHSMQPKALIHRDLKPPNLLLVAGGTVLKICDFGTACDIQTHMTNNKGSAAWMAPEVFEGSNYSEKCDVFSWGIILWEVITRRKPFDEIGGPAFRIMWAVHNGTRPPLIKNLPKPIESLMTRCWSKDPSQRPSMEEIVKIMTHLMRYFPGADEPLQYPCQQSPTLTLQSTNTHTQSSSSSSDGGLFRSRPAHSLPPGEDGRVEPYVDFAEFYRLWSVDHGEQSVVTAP
As to the kind of experiment: TAK1 biochemical assay (AlphaScreen, GST-MAP2K7 substrate).
Details: not given
For orientation: In Alpha technology, singlet oxygen from a donor bead excites a nearby acceptor bead.
One may read the IC50 as the point on the concentration scale where inhibition reaches its midpoint. In turn, `Cc1c(-c2cnc(N)c3oc(-c4csc5cnccc45)cc23)cnn1C` [Example 292, 4-(1,5-dimethyl-1H-pyrazol-4-yl)-2-thieno[2,3-c]pyridin-3-yl-furo[2,3-c]pyridin-7-ylamine] yielded an IC50 of 1000 to 10000 nM.

The compound `Cc1nn(C)c(C)c1-c1cnc(N)c2oc(-c3csc4cnccc34)cc12` [Example 294, 2-thieno[2,3-c]pyridin-3-yl-4-(1,3,5-trimethyl-1H-pyrazol-4-yl)-furo[2,3-c]pyridin-7-ylamine] had an IC50 of more than 10000 nM.

Staying with this assay, now noted: TAK1-TAB1 fusion protein, GST-MAP2K7 substrate; read-out: mean TAK1 IC50 (Col. A).
`Nc1ncc(-c2cnn(CCO)c2)c2cc(-c3cccc4cnccc34)oc12` [Example 67, 2-{4-[7-amino-2-(isoquinolin-5-yl)furo[2,3-c]pyridin-4-yl]-1H-pyrazol-1-yl}ethanol]: the 50% inhibitory concentration (IC50) was in the range of 1000 to 10000 nM.

On to `CC(=O)N1CCC(n2cc(-c3cnc(N)c4oc(-c5cccc(S(N)(=O)=O)c5)cc34)cn2)CC1` [Example 102, 3-{4-[1-(1-acetylpiperidin-4-yl)-1H-pyrazol-4-yl]-7-aminofuro[2,3-c]pyridin-2-yl}benzenesulfonamide], for which the IC50 was in the range of 1000 to 10000 nM.

Turning to `Nc1ncc(-c2cnn(C3CCNCC3)c2)c2cc(-c3csc4ccccc34)oc12` [Example 19, 2-(1-benzothiophen-3-yl)-4-[1-(piperidin-4-yl)-1H-pyrazol-4-yl]furo[2,3-c]pyridine-7-amine], the IC50 lay in the range of 1000 to 10000 nM.

`Nc1ncc(-c2cnn(C3CCNCC3)c2)c2cc(-c3ccn[nH]3)oc12` [Example 27, 4-[1-(piperidin-4-yl)-1H-pyrazol-4-yl]-2-(1H-pyrazol-5-yl)furo[2,3-c]pyridine-7-amine]: the 50% inhibitory concentration (IC50) is 1000 to 10000 nM.

As for `CC(=O)N1CCC(n2cc(-c3cnc(N)c4oc(-c5ccccc5C(F)(F)F)cc34)cn2)CC1` [Example 411, 1-[4-(4-{7-amino-2-[2-(trifluoromethyl)phenyl]furo[2,3-c]pyridin-4-yl}-1H-pyrazol-1-yl)piperidin-1-yl]ethanone], the IC50 was more than 10000 nM.

As for `Nc1ncc(-c2cnn([C@H]3CC[C@H](O)CC3)c2)c2cc(-c3cc(-c4cc[nH]n4)cc4nnsc34)oc12` [Example 374, trans-4-(4-{7-amino-2-[5-(1H-pyrazol-3-yl)-1,2,3-benzothiadiazol-7-yl]furo[2,3-c]pyridin-4-yl}-1H-pyrazol-1-yl)cyclohexanol], the IC50 is 100 to 1000 nM.

For `Nc1ncc(-c2cnn(C3CCN(C(=O)CCC4CCCC4)CC3)c2)c2cc(-c3csc4cnccc34)oc12` [Example 335, 1-{4-[4-(7-Amino-2-thieno[2,3-c]pyridin-3-yl-furo[2,3-c]pyridin-4-yl)-pyrazol-1-yl]-piperidin-1-yl}-3-cyclopentyl-propan-1-one], the IC50 is 1000 to 10000 nM.

As to `CC(=O)N1CCC(n2cc(-c3cnc(N)c4oc(-c5ccnc6ccccc56)cc34)cn2)CC1` [Example 175, 1-(4-{4-[7-amino-2-(quinolin-4-yl)furo[2,3-c]pyridin-4-yl]-1H-pyrazol-1-yl}piperidin-1-yl)ethanone], the IC50 is 100 to 1000 nM.

Regarding `CC(=O)N1CCC(n2cc(-c3cnc(N)c4oc(-c5cccc(N)c5)cc34)cn2)CC1` [Example 130, 1-(4-{4-[7-amino-2-(3-aminophenyl)furo[2,3-c]pyridin-4-yl]-1H-pyrazol-1-yl}piperidin-1-yl)ethanone], the IC50 was 100 to 1000 nM.

With `Nc1ncc(-c2cnn(C3CCNCC3)c2)c2cc(-c3cccc(C(F)(F)F)c3)oc12` [Example 6, 4-[1-(piperidin-4-yl)-1H-pyrazol-4-yl]-2-[3-(trifluoromethyl)phenyl]furo[2,3-c]pyridin-7-amine], the IC50 was 1000 to 10000 nM.

For the compound `CC(=O)N1CCC(n2cc(-c3cnc(N)c4oc(-c5ccc6cn[nH]c6c5)cc34)cn2)CC1` [Example 99, 1-(4-{4-[7-amino-2-(1H-indazol-6-yl)furo[2,3-c]pyridin-4-yl]-1H-pyrazol-1-yl}piperidin-1-yl)ethanone], the IC50 was in the range of 100 to 1000 nM.

With `CCCOc1cccc(-c2cc3c(-c4cnn(C5CCN(C(C)=O)CC5)c4)cnc(N)c3o2)c1` [Example 181, 1-(4-{4-[7-amino-2-(3-propoxyphenyl)furo[2,3-c]pyridin-4-yl]-1H-pyrazol-1-yl}piperidin-1-yl)ethanone], the concentration for half-maximal inhibition (IC50) is more than 10000 nM.
